Positions of bridges follow the written chain, without caps; N, C: chain ends. Residues, ends and D or L forms follow the SMILES beside them.
Key:
[1] = test system: GBM; conditions: surgical resection, radiotherapy and concomitant Temozolomide; extended from 12.1 months; cited from earlier work
Excerpt: Glioblastoma (GBM) is the most common malignant primary brain tumor, characterized by micro-vascular proliferation, cellular necrosis and the pronounced invasiveness of surrounding parenchima with high recurrency and a high mortality rate. […] In particular, surgery still represents an important pillar of treat ...

[2] = target: T1, integrin αV receptors on the GBM cell surface (U87-MG cells) (Homo sapiens, UniProt P06756); test: Receptor binding assay: displacement of FITC-uPAcyclin from U87-MG living cells; conditions: for increase of binding affinity compared to uPAcyclin / binding affinity compared to uPAcyclin (in words): U87-MG cells; for binding affinity compared to uPAcyclin (in words): displacement of FITC-uPAcyclin
T1 construct: endogenous in cells; host or cells: U87-MG human glioblastoma cells (living, acid-treated, 4 °C)
Description: The U87-MG and U251-MG cell lines were harvested and acid-treated, as described. Briefly, 2 × 10^6 cells/sample were pre-incubated for 30 min at 4 °C with uPAcyclin and Ala peptides and subsequently exposed to 50 nM FITC-uPAcyclin for 2 h at 4 °C, as described. The experiments were performed three times, with duplicate samples, and analyzed as reported in the statistical analysis.
This assay confirmed that FITC-uPAcyclin binds specifically to both GBM cell lines and to the HEK-293/αV, whereas little interaction is detected with HEK-293 cells (Supporting Information, Table S7). […] To investigate the ability of novel Ala-scan peptides to compete with uPAcyclin for binding to integrin αV receptors on the GBM cell surface, the specific interaction of FITC-conjugated uPAcyclin with U87-MG living cells was tested via a receptor binding assay. U87-MG GBM cells were pre-incubated with increasing concentrations of unlabeled Ala peptides and then exposed to FITC-uPAcyclin (Figure 1A). […] When considering the relative Kdapp of uPAcyclin variants, it can be inferred that the replacement either of each of the three prolines (Pro^2, Pro^5, Pro^6) or Lys^1 increases the binding affinity of the resulting peptide compared to uPAcyclin. In contrast, the Ala mutation of other residues is detrimental to the peptide binding affinity.
(§1) Figure 1 Binding of Ala peptides to U87-MG cells and effect of uPAcyclin and Ala peptides on U87-MG cellular migration. (A) A total of 2 × 10^6 U87-MG cells were pre-incubated for 30 min at 4 °C with increasing concentrations of unlabeled uPAcyclin and Ala peptides and then exposed to 50 nM of FITC-uPAcyclin for 2 h at 4 °C. Cell surface-associated fluorescence, as percentage of the sample with […], is shown. Experiments were carried out in duplicate, and the data shown here are representative of three independent experiments. (B) 11 × 10^4 U87-MG cells/sample were pre-treated for 40 min at 37 °C with increasing concentrations of uPAcyclin or the indicated Ala peptides and then assayed in Boyden chambers for 5% FBS-dependent migration for 3 h at 37 °C. At the end of incubation, the filters were processed as described in the Methods section. For clarity here and in the following Figures, Ala-x indicates the peptide with substituted x-position. For both assays, the p-values are in the range of 0.005 ≤ p ≤ 0.001, apart from [Ala1]uPAcyclin in the migration assay with p ≤ 0.05.

[3] = test system: U87-MG cells; assay type: cell-based, human; conditions: for inhibitory activity on cell migration, comparison (in words): U87-MG migration toward 5% FBS
Description: The migration and invasion assays were performed with Boyden chambers, according to De Vincenzo et al., using 11 × 10^4 U87-MG and U251-MG glioblastoma cells/sample pre-treated for 40 min at 37 °C with the indicated effectors and then allowed to migrate for 3 h or to invade for 5 h at 37 °C toward 5% FBS in DMEM/0.1% BSA. The migrated or invaded cells were reported as a percentage of basal random migration or invasion and analyzed as reported in the Statistical Analyses section. The migration and invasion experiments were conducted in triplicate.
as §1
Alterations of the amino acid sequence may affect the peptide structure and may, in turn, alter its function. To test for differences in the inhibitory activity of the Ala-substituted peptides, U87-MG glioblastoma cells were subjected to a directional migration assay in Boyden chambers towards FBS, in the presence or in the absence of the indicated concentrations of uPAcyclin or one of its Ala-scan derivatives (Figure 1B).

T1 sequence (P06756 31-889 limits assumed): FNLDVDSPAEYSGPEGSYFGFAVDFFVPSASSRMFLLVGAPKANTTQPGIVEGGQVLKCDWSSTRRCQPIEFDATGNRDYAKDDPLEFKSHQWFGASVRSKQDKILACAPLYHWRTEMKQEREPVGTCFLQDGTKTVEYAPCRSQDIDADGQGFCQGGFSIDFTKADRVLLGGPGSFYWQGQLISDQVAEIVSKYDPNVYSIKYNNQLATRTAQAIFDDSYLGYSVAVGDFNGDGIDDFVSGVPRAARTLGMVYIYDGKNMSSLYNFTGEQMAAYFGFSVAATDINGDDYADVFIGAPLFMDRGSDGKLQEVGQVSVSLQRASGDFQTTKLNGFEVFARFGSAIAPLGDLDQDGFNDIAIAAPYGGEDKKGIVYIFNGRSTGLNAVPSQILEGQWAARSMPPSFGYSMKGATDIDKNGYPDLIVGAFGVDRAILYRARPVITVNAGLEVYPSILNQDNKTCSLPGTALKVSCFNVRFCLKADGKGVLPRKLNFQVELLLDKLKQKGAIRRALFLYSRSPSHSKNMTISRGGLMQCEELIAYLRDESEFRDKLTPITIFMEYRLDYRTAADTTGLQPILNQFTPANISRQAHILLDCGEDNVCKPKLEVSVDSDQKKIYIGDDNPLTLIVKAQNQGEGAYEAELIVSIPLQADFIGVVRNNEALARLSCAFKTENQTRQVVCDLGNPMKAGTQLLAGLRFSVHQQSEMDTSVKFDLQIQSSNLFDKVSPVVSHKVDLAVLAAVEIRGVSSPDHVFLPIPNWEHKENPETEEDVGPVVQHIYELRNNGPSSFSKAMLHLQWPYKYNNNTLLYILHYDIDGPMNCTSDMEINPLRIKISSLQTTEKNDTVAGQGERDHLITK
T1 sequence (P06756 891-1048 limits assumed): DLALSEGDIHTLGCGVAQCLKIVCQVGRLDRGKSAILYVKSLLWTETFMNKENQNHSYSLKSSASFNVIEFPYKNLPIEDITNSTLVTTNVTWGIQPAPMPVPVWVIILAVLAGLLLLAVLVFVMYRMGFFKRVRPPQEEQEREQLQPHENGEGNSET

increase of binding affinity compared to uPAcyclin [2] | improvement in binding compared to parental uPAcyclin ([2]; GBM cells) | Structure (SMILES) | median overall survival [1] | binding affinity compared to uPAcyclin (in words) [2] | IC50 of migration lower / inhibitory activity higher than parental uPAcyclin ([3]; U87-MG migration) | inhibitory activity on cell migration, comparison (in words) [3]
 |  | Cn1nnc2c(C(N)=O)ncn2c1=O [Temozolomide] | 14.6 months |  |  | 
about 1 log |  | CC(=O)N[C@@H](CCCCN)C(=O)N[C@@H](C)C(=O)N[C@H]1CCC(=O)NCCCC[C@@H](C(N)=O)NC(=O)[C@H](CC(C)C)NC(=O)[C@H](CCC(=O)O)NC(=O)[C@H](CCC(=O)O)NC(=O)[C@@H]2CCCN2C(=O)[C@@H]2CCCN2C(=O)[C@H](CO)NC1=O [[Ala^2]uPAcyclin] (Ac-KAESPPEELK-NH2; lactam 3-10) |  | definitely higher than that of the parental uPAcyclin | about 10 fold | strong inhibitors
about 1 log | 10 fold | CC(=O)N[C@@H](CCCCN)C(=O)N1CCC[C@H]1C(=O)N[C@H]1CCC(=O)NCCCC[C@@H](C(N)=O)NC(=O)[C@H](CC(C)C)NC(=O)[C@H](CCC(=O)O)NC(=O)[C@H](CCC(=O)O)NC(=O)[C@@H]2CCCN2C(=O)[C@H](C)NC(=O)[C@H](CO)NC1=O [[Ala^5]uPAcyclin] (Ac-KPESAPEELK-NH2; lactam 3-10) |  | definitely higher than that of the parental uPAcyclin |  | strong inhibitors

Source: PMC11853379, “Glioblastoma Cell Migration, Invasion and Vasculogenic Mimicry Downmodulated by Novel uPAcyclin Derivatives” (Cells, 2025)
